# According to the NIST ThermoML archive (doi:10.1016/j.jct.2012.11.016):
# ± gives the expanded uncertainty stated by the source.
# Key:
# [1] = 101.33 kPa, Liquid; for viscosity: Capillary tube (Ostwald / Ubbelohde) method; for mass density: Vibrating tube method
# [2] = refractive index (Na D-line) (dimensionless); details: 101.33 kPa, Liquid, Standard Abbe refractometry
viscosity ([1]; 298.15 K),viscosity ([1]; 303.15 K),mass density ([1]; 303.15 K),viscosity ([1]; 308.15 K),mass density ([1]; 308.15 K),refractive index ([2]; 298.15 K),refractive index ([2]; 303.15 K),refractive index ([2]; 308.15 K),Compound,mass density ([1]; 298.15 K)
16.87 ± 1.7 mPa·s,13.59 ± 1.4 mPa·s,1106 ± 1.1 kg/m3,11.34 ± 1.1 mPa·s,–,–,–,–,"OCCO [1,2-ethanediol]",–
41.36 ± 4.2 mPa·s,32.78 ± 3.3 mPa·s,1046.2 ± 0.9 kg/m3,27 ± 2.7 mPa·s,1043.1 ± 0.9 kg/m3,–,–,–,"OCCCO [propan-1,3-diol]",1049.6 ± 0.9 kg/m3
0.806 ± 0.081 mPa·s,0.728 ± 0.073 mPa·s,995.4 ± 0.3 kg/m3,0.661 ± 0.066 mPa·s,993.7 ± 0.3 kg/m3,1.3326 ± 0.0005,1.3321 ± 0.0005,1.3315 ± 0.0005,O [water],–

Compound,viscosity ([1]; 298.15 K),viscosity ([1]; 303.15 K),mass density ([1]; 303.15 K),viscosity ([1]; 308.15 K),mass density ([1]; 308.15 K),refractive index ([2]; 298.15 K),refractive index ([2]; 303.15 K),refractive index ([2]; 308.15 K),mass density ([1]; 298.15 K)
"OCCCCO [1,4-butanediol]",72.33 ± 7.3 mPa·s,56.43 ± 5.7 mPa·s,1010.6 ± 0.9 kg/m3,44.11 ± 4.5 mPa·s,1007.5 ± 0.9 kg/m3,–,–,–,1013.9 ± 0.9 kg/m3
